Measurements reported in patent publication US20220235065A1 (Epizyme, Inc., priority 2016, published 2022).
Where a name gives a salt, the structure may show the parent alone.

Legend:
EHMT1 = target: T1, EHMT1 (Homo sapiens, UniProt Q9H9B1); experiment: EHMT1 PEP (EHMT1 peptide enzyme assay); format: biochemical; conditions: peptide substrate enzyme assay
T1 sequence (Q9H9B1 1-1298): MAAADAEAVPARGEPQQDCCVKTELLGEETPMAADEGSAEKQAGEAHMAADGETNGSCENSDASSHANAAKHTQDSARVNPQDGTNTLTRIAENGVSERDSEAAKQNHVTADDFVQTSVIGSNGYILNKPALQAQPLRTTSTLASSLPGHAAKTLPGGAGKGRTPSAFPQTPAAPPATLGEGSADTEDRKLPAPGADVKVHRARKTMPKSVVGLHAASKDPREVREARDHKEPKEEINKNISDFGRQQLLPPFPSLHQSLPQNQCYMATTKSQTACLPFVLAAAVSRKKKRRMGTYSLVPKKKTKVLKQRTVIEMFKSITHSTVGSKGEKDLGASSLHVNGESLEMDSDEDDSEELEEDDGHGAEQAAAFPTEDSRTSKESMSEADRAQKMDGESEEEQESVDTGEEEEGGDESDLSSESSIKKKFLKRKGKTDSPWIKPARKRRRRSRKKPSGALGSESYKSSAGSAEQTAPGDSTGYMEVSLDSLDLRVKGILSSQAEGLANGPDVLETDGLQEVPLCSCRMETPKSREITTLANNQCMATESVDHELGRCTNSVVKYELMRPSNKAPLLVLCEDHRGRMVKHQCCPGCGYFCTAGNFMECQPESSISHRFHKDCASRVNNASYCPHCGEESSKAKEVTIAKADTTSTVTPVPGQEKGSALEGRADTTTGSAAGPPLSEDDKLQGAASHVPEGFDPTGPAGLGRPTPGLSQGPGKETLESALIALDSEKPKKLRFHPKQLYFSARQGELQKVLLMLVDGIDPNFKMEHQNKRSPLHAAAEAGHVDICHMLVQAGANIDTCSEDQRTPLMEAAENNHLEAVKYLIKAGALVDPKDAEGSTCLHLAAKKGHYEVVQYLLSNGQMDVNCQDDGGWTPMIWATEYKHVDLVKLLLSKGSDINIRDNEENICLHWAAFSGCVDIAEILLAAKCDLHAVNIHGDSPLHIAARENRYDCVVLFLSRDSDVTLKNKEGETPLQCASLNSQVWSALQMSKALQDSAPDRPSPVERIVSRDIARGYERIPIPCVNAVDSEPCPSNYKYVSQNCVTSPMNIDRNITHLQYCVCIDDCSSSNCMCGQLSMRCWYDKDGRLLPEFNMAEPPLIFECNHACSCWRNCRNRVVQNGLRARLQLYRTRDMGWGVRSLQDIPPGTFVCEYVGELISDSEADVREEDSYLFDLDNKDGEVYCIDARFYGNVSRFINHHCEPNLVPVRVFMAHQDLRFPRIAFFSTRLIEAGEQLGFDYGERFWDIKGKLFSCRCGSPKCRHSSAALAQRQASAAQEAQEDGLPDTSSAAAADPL

[1] = tested on: H3K9me2 in MDA-MB-231 cells; experiment: MDA-MB-231 H3K9me2 in-cell western assay; format: cell-based; conditions: Homo sapiens, read-out: EHMT2 ICW (IC50 μM)
How it was run: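 MDA-MB-231 cells (3,000/well) exposed to compound for two consecutive 48 h periods at 37 °C, then fixed and stained for H3K9me2, with DRAQ5 as DNA stain and infrared read at 700/800 nm. Percent inhibition was set between DMSO and UNC0638 control wells. IC50 came from triplicate dose–response fits with a four-parameter model, top 100%, bottom 0%.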

Row | Structure (SMILES) | IC50 (EHMT1) [µM] | IC50 [1] [µM]
1 | CNc1cc(C)nc(Nc2ccc(OC)c(-c3cc(C4CC4)on3)c2)n1 [Compound 13] | 0.1 to 1 | 1 to 10
2 | CNc1cc(C)nc(Nc2ccc(OC)c(-n3cc(C4CC4)cn3)c2)n1 [Compound 14, 2-N-[3-(4-cyclopropyl-1H-pyrazol-1-yl)-4-methoxyphenyl]-4-N,6-dimethylpyrimidine-2,4-diamine] | 0.1 to 1 | 1 to 10
3 | CNc1cc(C)nc(Nc2ccc(OC)c(-n3cccn3)c2)n1 [Compound 15, 2-N-[4-methoxy-3-(1H-pyrazol-1-yl)phenyl]-4-N,6-dimethylpyrimidine-2,4-diamine; trifluoroacetic acid] | > 10 | > 10
4 | CNc1cc(C)nc(Nc2cnc(OC)c(-n3ncc4c3CCNC4)c2)n1 [Compound 19] | 1 to 10 | 1 to 10
5 | CNc1cc(C)nc(Nc2ccc(OC)c(-c3nnc4n3CCNC4)c2)n1 [Compound 21] | > 10 | > 10
6 | CNc1cc(C)nc(Nc2ccc(OC)c(-n3cc4c(n3)CNCC4)c2)n1 [Compound 22, 2-N-(4-methoxy-3-[2H,4H,5H,6H,7H-pyrazolo[3,4-c]pyridin-2-yl]phenyl)-4-N,6-dimethylpyrimidine-2,4-diamine hydrochloride] | 1 to 10 | > 10
7 | CNc1cc(C)nc(Nc2ccc(OC)c(-n3cc(CN)cn3)c2)n1 [Compound 23, 2-N-[3-[4-(aminomethyl)-1H-pyrazol-1-yl]-4-methoxyphenyl]-4-N,6-dimethylpyrimidine-2,4-diamine; trifluoroacetic acid] | < 0.1 | 1 to 10
8 | CNc1cc(C)nc(Nc2ccc(OC)c(-n3nccc3CN)c2)n1 [Compound 24] | 1 to 10 | > 10
9 | CNc1cc(C)nc(Nc2ccc(OC)c(-n3ncc4c3CCCC4)c2)n1 [Compound 26, 2-N-[4-methoxy-3-(4,5,6,7-tetrahydro-1H-indazol-1-yl)phenyl]-4-N,6-dimethylpyrimidine-2,4-diamine trifluoroacetic acid] | 1 to 10 | > 10
10 | CNc1nc(Nc2ccc(OC)c(-n3cc4c(n3)CCNC4)c2)nc(C)c1F [Compound 27, 5-fluoro-2-N-(4-methoxy-3-[2H,4H,5H,6H,7H-pyrazolo[4,3-c]pyridin-2-yl]phenyl)-4-N,6-dimethylpyrimidine-2,4-diamine trifluoroacetic acid] | 0.1 to 1 | 1 to 10
11 | CNc1nc(Nc2ccc(OC)c(-n3ncc4c3CCNC4)c2)nc(C)c1F [Compound 28, 5-fluoro-2-N-(4-methoxy-3-[1H,4H,5H,6H,7H-pyrazolo[4,3-c]pyridin-1-yl]phenyl)-4-N,6-dimethylpyrimidine-2,4-diamine trifluoroacetic acid] | 1 to 10 | 1 to 10
12 | CNc1cc(C)nc(Nc2ccc(OC)c(-c3c(C)nc4n3CCNC4)c2)n1 [Compound 30] | > 10 | > 10
13 | CNc1cc(C)nc(Nc2ccc(OC)c(-c3nnc4n3CCN(C)C4)c2)n1 [Compound 31] | > 10 | > 10
14 | CNc1cc(C)nc(Nc2ccc(OC)c(-n3ncc4c3CCCN4)c2)n1 [Compound 32] | > 10 | > 10
15 | CNc1cc(C)nc(Nc2ccc(OC)c(-c3cccc4[nH]ccc34)c2)n1 [Compound 33, 2-N-[3-(1H-indol-4-yl)-4-methoxyphenyl]-4-N,6-dimethylpyrimidine-2,4-diamine hydrochloride] | > 10 | > 10
16 | CNc1cc(C)nc(Nc2ccc(OC)c(-n3ncc4cnccc43)c2)n1 [Compound 35, 2-N-(4-methoxy-3-[1H-pyrazolo[4,3-c]pyridin-1-yl]phenyl)-4-N,6-dimethylpyrimidine-2,4-diamine; trifluoroacetic acid] | 1 to 10 | 1 to 10
17 | CNc1cc(C)nc(Nc2ccc(OC)c(-n3ncc4ccncc43)c2)n1 [Compound 36] | 1 to 10 | > 10
18 | CNc1cc(C)nc(Nc2ccc(OC)c(-c3cccc4[nH]ncc34)c2)n1 [Compound 37, 2-N-[3-(1H-indazol-4-yl)-4-methoxyphenyl]-4-N,6-dimethylpyrimidine-2,4-diamine; trifluoroacetic acid] | > 10 | > 10
19 | CNc1cc(C)nc(Nc2ccc(OC)c(-c3nc4cnccn4n3)c2)n1 [Compound 38] | 1 to 10 | > 10
20 | CNc1cc(C)nc(Nc2ccc(OC)c(-c3c(C)nc4cnccn34)c2)n1 [Compound 39] | > 10 | > 10

Second part, the molecule after the results:

Row | IC50 (EHMT1) [µM] | IC50 [1] [µM] | Structure (SMILES)
21 | > 10 | > 10 | CCc1ccc(Nc2nc(C)cc(NC)n2)cc1C(=O)Nc1cccnc1 [Compound 244]
22 | > 10 | > 10 | CNc1cc(C)nc(Nc2ccc(Cl)c(C(=O)Nc3ccnnc3)c2)n1 [Compound 245]
23 | 0.1 to 1 | 1 to 10 | CNc1cc(C)nc(Nc2ccc(Cl)c(C(=O)Nc3nccs3)c2)n1 [Compound 246]
24 | 1 to 10 | > 10 | Cc1cc(NC2CCNCC2)ncc1-c1cc2[nH]ccc2cn1 [Compound 247]
25 | 0.1 to 1 | 1 to 10 | CNc1cc(C)nc(Nc2ccc(Cl)c(C(=O)Nc3cnccn3)c2)n1 [Compound 251]
26 | < 0.1 | 0.1 to 1 | CNc1cc(C)nc(Nc2ccc(Cl)c(-c3cc4[nH]ccc4cn3)c2)n1 [Compound 255]
27 | < 0.1 | 0.1 to 1 | CNc1cc(C)nc(Nc2ccc(C)c(-c3cc4[nH]ccc4cn3)c2)n1 [Compound 256]
28 | 0.1 to 1 | 1 to 10 | CNc1nc2cc(-c3cc4[nH]ccc4cn3)c(C)cc2n1C [Compound 257]
29 | 0.1 to 1 | 1 to 10 | CNc1cc(C)nc(Nc2ccc(Cl)c(C(=O)Nc3ncccn3)c2)n1 [Compound 258]
30 | 1 to 10 | > 10 | CNc1cc(C)nc(Nc2ccc(Cl)c(C(=O)Nc3ccncn3)c2)n1 [Compound 259]
31 | 0.1 to 1 | > 10 | CNc1cc(C)nc(Nc2ccc(Cl)c(-c3cc4c(cn3)CC(=O)N4)c2)n1 [Compound 260]
32 | < 0.1 | < 0.1 | CNCc1cnn(-c2cc(Nc3nc(C)cc(NC)n3)ccc2Cl)c1 [Compound 262, N2-(4-chloro-3-(4-((methylamino)methyl)-1H-pyrazol-1-yl)phenyl)-N4,6-dimethylpyrimidine-2,4-diamine]
33 | < 0.1 | 0.1 to 1 | CCc1ccc(Nc2nc(C)cc(NC)n2)cc1-c1cc2ccncc2[nH]1 [Compound 269]
34 | 1 to 10 | > 10 | CNc1cc(C)nc(Nc2ccc(C)c(-c3[nH]c4cnccc4c3C#N)c2)n1 [Compound 271]
35 | 1 to 10 | > 10 | CNc1cc(C)nc(Nc2ccc(C)c(-c3cc4ccccc4[nH]3)c2)n1 [Compound 274]
36 | 1 to 10 | 1 to 10 | CCNc1c[nH]c(=O)c(-c2cc(Nc3nc(C)cc(NC)n3)ccc2C)c1 [Compound 276]
37 | < 0.1 | 0.1 to 1 | CNc1nc2cc(-c3cc4ccncc4[nH]3)c(C)cc2n1C [Compound 278]
38 | < 0.1 | 1 to 10 | CNc1cc(C)nc(Nc2ccc(C)c(-c3nc4ccncc4[nH]3)c2)n1 [Compound 279]
39 | 1 to 10 | > 10 | CNc1cc(C)nc(Nc2ccc(C)c(C(=O)Nc3cscn3)c2)n1 [Compound 280]
40 | < 0.1 | < 0.1 | CNc1cc(C)nc(Nc2ccc(C)c(-n3cc4cnccc4n3)c2)n1 [Compound 282]
41 | < 0.1 | < 0.1 | CNCc1cnn(-c2cc(Nc3nc(C)cc(NC)n3)ccc2OC)c1 [Compound 285]
42 | < 0.1 | < 0.1 | CNCc1cnn(-c2cc(Nc3nc(C)cc(NC)n3)ccc2C)c1 [Compound 286, N4,6-dimethyl-N2-(4-methyl-3-(4-((methylamino)methyl)-1H-pyrazol-1-yl)phenyl)pyrimidine-2,4-diamine]
43 | 0.1 to 1 | 1 to 10 | CNc1cc(C)nc(Nc2ccc(C)c(C(=O)Nc3cnccn3)c2)n1 [Compound 287]
